{
  "source": "patent US9662329B2",
  "about": "“Use of survivin antagonists in polyomavirus-related disease” (University of Pittsburgh—Of the Commonwealth System of …, priority 2012, dated 2017)",
  "key": {"MKL-2 xenografts": {"system": "MKL-2 xenografts", "experiment": "MKL-2 xenograft drug treatment", "format": "in vivo, NSG mice", "conditions": "continuously at 4 mg/kg"}, "[1]": {"system": "survivin protein expression in MKL-1 cells", "experiment": "Immunoblotting for survivin", "format": "cell-based, human", "conditions": "after 12 h treatment", "procedure": "Cells were lysed in buffer (RIPA or 10 mM Tris-HCl pH 8.0, 0.6% SDS) containing protease inhibitor cocktail (Roche). Lysates were electrophoresed in 10% SDS-PAGE, transferred to nitrocellulose membrane (Amersham) and reacted with specific antibodies (CM2B4, (1:5000 dilution) (Shuda et al., Human Merkel cell polyomavirus infection I. MCV T antigen expression in Merkel cell carcinoma, lymphoid tissues and lymphoid tumors. Int J Cancer 125, 1243 (Sep. 15, 2009)), cleaved PARP, cleaved caspase3, survivin, XIAP, p53, Bcl-2, Bax (1:1000 dilution, Cell Signalling Technologies), E2F1, cyclin E (1:1000 dilution, Santa Cruz Biotechnology), LC3 (1:1000 dilution, Novus Biologicals) or α-tubulin (1:5000 dilution, Sigma)) overnight at 4° C., followed by anti-mouse (1:5000 dilution, Amersham) or anti-rabbit IgG-HRP conjugates (1:3000 dilution, Cell signaling) for 1 hour at room temperature. Peroxidase activity was detected using Western Lightning plus-ECL reagent (Perkin Elmer). For quantitative immunoblotting, Odyssey Infrared Imaging system (LICOR) was used with IRDye 800-conjugated secondary antibodies (1:5000 dilution, Rockland Immuno chemicals)."}, "[2]": {"system": "MCV-negative MCC13, BJ and BJhTERT cells", "experiment": "Cell-Titer Glo growth curves for YM155", "format": "cell-based, human", "conditions": "48 h", "source_text": "(§1) Seven Merkel cell carcinoma cell lines: MKL-1, MKL-2, MS-1, UISO, MCC13, MCC26 and WaGa (kind gift of Jurgen Becker (Houben et al., Merkel cell polyomavirus-infected Merkel cell carcinoma cells require expression of viral T antigens. J Virol 84, 7064 (July, 2010); Ronan et al., Merkel cell carcinoma: in vitro and in vivo characteristics of a new cell line. J Am Acad Dermatol 29, 715 (November, 1993); Rosen et al., Establishment and characterization of a neuroendocrine skin carcinoma cell line. Lab Invest 56, 302 (March, 1987)); NCI-H69 small cell lung cancer cell line (ATCC); 293 human embryonic kidney cells (ATCC); U2OS osteosarcoma cell line (kind gift of Ole Gjoerup); BJhTERT immortalized foreskin fibroblast cell line (kind gift of Ole Gjoerup); and BJ primary foreskin fibroblasts (ATCC) were used to screen and evaluate the small molecules examined in this study (Houben et al., J Virol 84, 7064 (July, 2010); Ronan et al., J Am Acad Dermatol 29, 715 (November, 1993); Rosen et al., Lab Invest 56, 302 (March, 1987)). […]\n(§2) Serial drug dilutions from 10^−4 M to 10^−9 M were used on MCC and non-MCC cell lines. […] Cell viability was then measured using Cell Titer Glo (Promega) kit following manufacturer's instructions as described previously. […] EC50 doses for the drugs were calculated using a four parameter logistic equation (GraphPad Prism)."}, "[3]": {"system": "MCV-negative UISO and MCC26", "experiment": "Cell-Titer Glo growth curves for YM155", "format": "cell-based, human", "conditions": "48 h", "source_text": "as §1, §2"}, "survivin": {"system": "survivin", "experiment": "qRT-PCR for survivin in xenograft tumor tissues", "format": "in vivo, mice", "conditions": "2 mg/kg vs saline"}, "[4]": {"system": "MCV-negative MCC cell line", "experiment": "Cell-Titer Glo growth inhibition by YM155", "format": "cell-based, human", "conditions": "MCV-negative vs MCV-positive MCC cells", "procedure": "Serial drug dilutions from 10^−4 M to 10^−9 M were used on MCC and non-MCC cell lines. Cells were seeded into 384-well plates at 6000 cells in 50 μl of medium per well. After 24 hours, 25 μl of 3× drugs were added at increasing concentration to each well. Cell viability was then measured using Cell Titer Glo (Promega) kit following manufacturer's instructions as described previously. Each drug concentration was tested in triplicate for each cell line and experiments were repeated twice. EC50 doses for the drugs were calculated using a four parameter logistic equation (GraphPad Prism)."}, "[5]": {"system": "MS-1 (MCV-positive) and UISO (MCV-negative) cell xenografts", "experiment": "MS-1 and UISO xenograft drug treatment", "format": "in vivo, NSG mice", "conditions": "end of three week treatment period; MS-1 and UISO xenografts", "procedure": "MCC cells were checked for viability >90% by trypan blue staining, resuspended in PBS (2×10^7 cells in 100 μl) and inoculated subcutaneously into the right flank of mice.\nAll treatments were delivered for three consecutive weeks. […] YM-155 (2 mg/kg) was given intraperitoneally on five consecutive days, followed by a two-day treatment free interval."}, "MKL-1 cells [6]": {"system": "MKL-1 cells", "experiment": "Cell cycle analysis (PI and BrdU staining)", "format": "cell-based, human", "conditions": "12 h, YM155 100 nM, camptothecin 1 μM", "procedure": "MKL-1 cells were treated with Accutase (Millipore) to break clumps and then resuspended in fresh medium containing drug and treated for 12 hours. Three hours before harvest 10 μM Bromodeoxyuridine (BrdU) was added. Cells were then harvested and fixed in chilled 70% ethanol and left overnight. The next day cells were washed, resuspended in 200 μl of 2M HCl/Triton X (1%) and incubated for 30 mins at room temperature. Cells were then centrifuged at 2000 rpm for 10 mins and neutralized in 200 μl of 0.1M sodium tetraborate, pH 8.5 solution. Cells were then washed, suspended in 20 μl of PBS containing 0.5% tween20, 1% donkey serum and 2ul of anti-BrdU antibody (1:10 diution, BD Biosciences) and incubated overnight at 4° C. Cells were then washed and incubated with secondary antibody-anti mouse Alexa488 (1:1000) for 1 hour at room temperature. Cells were finally washed, suspended in PBS containing 100 μg/ml of RNase A, 50 μg/ml of PI (propidium iodide) and 0.05% Triton X and incubated for 30 mins at 37° C. in the dark. The cells were then subjected to FACS using the accuri C6 flow cytometer (UPCI shared resources)."}, "MKL-1 cells [7]": {"system": "MKL-1 cells", "experiment": "Trypan blue dye exclusion assay", "conditions": "for viability at 0.1 µM: Homo sapiens", "procedure": "(§3) Cells were equally seeded and treated with YM155 for 48 hours. To count blue stained dead cells, cells were treated with Accutase (Millipore), collected, resuspended in PBS, mixed with equal volume of Trypan blue (Lonza, 0.4%) and counted using a hemocytometer under the microscope. The counts were done in triplicate and the experiment was repeated three times.\nMKL-1 cells were co-stained with CFDA (green, live) and PI (red, dead). In FIG. 4D, column graphs represent mean and range quantitations (using ImageJ) of % CFDA positive and % PI positive cells."}, "UISO cells": {"system": "UISO cells", "experiment": "Trypan blue dye exclusion assay", "format": "cell-based, human", "conditions": "48 h", "procedure": "as §3"}, "BJ cells": {"system": "BJ cells", "experiment": "Trypan blue dye exclusion assay", "format": "cell-based, human", "conditions": "48 h", "procedure": "as §3"}, "MKL-1 cells [8]": {"system": "MKL-1 cells", "experiment": "Immunoblotting for cPARP, cCaspase 3 and LC3", "format": "cell-based, human", "conditions": "100 nM, 48 hours"}},
  "note": "Read-outs that look alike come from different tables or passages of the source.",
  "data": [
    {"smiles": "COCCn1c2c([n+](Cc3cnccn3)c1C)C(=O)c1ccccc1C2=O.[Br-]", "note": "[YM155, 1-(2-methoxyethyl)-2-methyl-4,9-dioxo-3-(pyrazin-2-ylmethyl)-4,9-dihydro-1H-naphtho[2,3-d]imidazol-3-ium bromide]", "values": [
      {"measurement": "animals surviving, of 10", "setting": "MKL-2 xenografts", "value": "three survived more than four months"},
      {"measurement": "survivin protein expression", "setting": "[1]", "value": "dose-dependent decrease"},
      {"measurement": "sensitivity to YM155, dose-dependent growth curves", "setting": "[2]", "value": "relative resistance"},
      {"measurement": "sensitivity to YM155, dose-dependent growth curves", "setting": "[3]", "value": "intermediate sensitivity"},
      {"measurement": "survivin levels in xenograft tumors (qRT-PCR)", "setting": "survivin", "value": "Lower survivin levels"},
      {"measurement": "concentrations inhibiting MCV-negative MCC cell line growth, higher than for MCV-positive MCC cells", "setting": "[4]", "value": "1-2 orders of magnitude"},
      {"measurement": "final tumor volumes, % (median) of saline-treated control mice", "setting": "[5]", "value": "43-55%"},
      {"measurement": "BrdU incorporation", "setting": "MKL-1 cells [6]", "value": "ablates BrdU incorporation in all phases of the cell cycle"},
      {"measurement": "cell killing, trypan blue vital dye exclusion", "setting": "MKL-1 cells [7]; 48 h, MKL-1", "value": "dose-dependent cell killing"},
      {"measurement": "viability at 0.1 µM", "setting": "MKL-1 cells [7]; MKL-1, read-out: cells remaining viable at 48 hours, 100 nM for 3 hours, followed by wash out", "value": 51, "unit": "%"},
      {"measurement": "viability at 0.1 µM", "setting": "MKL-1 cells [7]; MKL-1, read-out: cells remaining viable at 48 hours, 100 nM for 6 hours, followed by wash out", "value": 3, "unit": "%"},
      {"measurement": "viability at 0.1 µM", "setting": "MKL-1 cells [7]; MKL-1, read-out: cells remaining viable at 48 hours, 100 nM for 12 hours, followed by wash out", "value": 1.8, "unit": "%"},
      {"measurement": "cell killing, trypan blue vital dye exclusion", "setting": "UISO cells", "value": "relatively less sensitive"},
      {"measurement": "cell killing, trypan blue vital dye exclusion", "setting": "BJ cells", "value": "resistant"},
      {"measurement": "LC3-II accumulation (marker for cell autophagy)", "setting": "MKL-1 cells [8]", "value": "did not initiate LC3-II accumulation"},
      {"measurement": "apoptosis measured by caspase 3 and PARP cleavage", "setting": "MKL-1 cells [8]", "value": "No evidence of apoptosis"}
    ]}
  ]
}
